Results: patent US4954502A, “1-indolyalkyl-4-(substituted-pyridinyl)piperazines” (Bristol-Myers Squibb Company, priority 1989, dated 1990)
Where a name gives a salt, the structure may show the parent alone.

The compounds below were run against T1, serotonin uptake (Rattus norvegicus, UniProt P31652) (assay: Inhibition of serotonin uptake (in vitro): inhibition of synaptosomal reuptake of tritiated serotonin).
T1 construct: from tissue
T1 sequence (P31652 whole entry): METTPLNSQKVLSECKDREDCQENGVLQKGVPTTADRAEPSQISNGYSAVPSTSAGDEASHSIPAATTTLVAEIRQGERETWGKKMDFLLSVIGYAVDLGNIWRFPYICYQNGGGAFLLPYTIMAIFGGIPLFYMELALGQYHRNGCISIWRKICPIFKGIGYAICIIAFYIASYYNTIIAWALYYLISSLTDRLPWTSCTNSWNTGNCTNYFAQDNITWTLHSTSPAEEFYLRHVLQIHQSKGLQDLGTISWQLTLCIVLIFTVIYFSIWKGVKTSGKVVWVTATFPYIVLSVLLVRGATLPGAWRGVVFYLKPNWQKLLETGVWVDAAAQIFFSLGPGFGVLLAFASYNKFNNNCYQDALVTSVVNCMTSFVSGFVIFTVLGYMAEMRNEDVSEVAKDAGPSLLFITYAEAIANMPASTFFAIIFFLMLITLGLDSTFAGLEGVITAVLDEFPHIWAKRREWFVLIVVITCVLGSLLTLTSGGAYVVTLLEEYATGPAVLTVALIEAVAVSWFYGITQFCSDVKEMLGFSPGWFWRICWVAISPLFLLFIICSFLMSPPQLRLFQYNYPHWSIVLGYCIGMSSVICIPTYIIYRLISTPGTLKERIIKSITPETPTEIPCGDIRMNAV
Assay type: biochemical
Protocol: Determination of endogenous monoaminergic re-uptake inhibition values both for serotonin and norepinephrine was accomplished using test methods described by P. Skolnick, et al.. Br. J. Pharmacology (1985), 86, pp. 637-644; with only minor modifications. In vitro IC50 (nM) test values were determined for representative compounds of Formula I based on their inhibition of synaptosomal reuptake of tritiated serotonin. Test data IC50 values lower than 500 nM are considered to reflect activity as an inhibitor of serotonin reuptake. Compounds with Ic50 values lower than 1OO nM comprise preferred compounds.
Compound `COc1cccnc1N1C[C@@H]2C[C@H]1CN2CCCc1c[nH]c2ccccc12` [Example 34] has an IC50 of 5.6 nM. `COc1cccnc1N1CCN(CCCc2cn(C)c3ccccc23)CC1` [Example 50] was tested, and the IC50 was 3.7 nM. In the case of `COc1cccnc1N1CCN(CCCCc2c[nH]c3ccccc23)CC1` [Example 21, 1-[4-(1H-indol-3-yl)butyl]-4-(3-methoxy-2-pyridine-1)piperazine dihydrochloride], the IC50 is reported as 58 nM. With `FC(F)(F)c1ccnc(N2CCN(CCc3c[nH]c4ccccc34)CC2)c1` [Example 37] the IC50 was 386 nM. `Fc1ccc2[nH]cc(CCN3CCN(c4cccc(C(F)(F)F)n4)CC3)c2c1` [Example 43] gave an IC50 of 73 nM. `Fc1ccc2[nH]cc(CCN3CCN(c4cccc(Cl)n4)CC3)c2c1` [Example 41] showed an IC50 of 2.8 nM. For `COc1cc2[nH]cc(CCN3CCN(c4cccc(C(F)(F)F)n4)CC3)c2cc1OC` [Example 69], the IC50 was 479 nM. `NC(=O)c1ccc2[nH]cc(C3=CCC(N4CCN(c5cccc(Cl)n5)CC4)CC3)c2c1` (stereo not shown) [Example 46] was tested, and the IC50 was 27 nM. Compound `COc1cccnc1N1C[C@H]2C[C@@H]1CN2CCc1c[nH]c2ccccc12` [Example 26] has an IC50 of 106 nM. For `FC(F)(F)c1cccc(N2CCN(CCc3c[nH]c4ccc(Cl)cc34)CC2)n1` [Example 63], the IC50 was 437 nM. `Clc1cccc(N2CCN(CCc3c[nH]c4ccccc34)CC2)n1` [Example 14, 4-[6-Chloro-2-pyridinyl]-1-[2-(1H-indol-3-yl)-ethyl]piperazine hydrochloride] was tested, and the IC50 was 74 nM. `COc1cccnc1N1CCN(CCc2cn(C)c3ccccc23)CC1` [Example 47] was tested, and the IC50 was 24 nM. Work on `COc1ccc2[nH]cc(C3=CCC(N4CCN(c5cccc(Cl)n5)CC4)CC3)c2c1` (stereo not shown) [Example 23, 3-[4-[4-(6-Chloro-2-pvridinyl)-1-piperazinyl]-1cyclohexen-1-yl]-5-methoxy-1H-indole] yielded an IC50 of 99 nM. In the case of `Cn1cc(CCN2CCN(c3cccc(Cl)n3)CC2)c2ccccc21` [Example 55], the IC50 is reported as 126 nM. `COc1ccc2[nH]cc(CCN3CCN(c4ncccc4OC)CC3)c2c1` [Example 38] showed an IC50 of 11 nM. For `CC1CN(c2cccc(Cl)n2)CCN1CCCc1c[nH]c2ccccc12` (stereo not shown) [Example 72], the IC50 was 18.7 nM. Compound `FC(F)(F)c1ccnc(N2CCN(CCCc3c[nH]c4ccccc34)CC2)c1` [Example 33] has an IC50 of 105 nM. `CC(CCc1c[nH]c2ccccc12)N1CCN(c2cccc(Cl)n2)CC1` (stereo not shown) [Example 67] gave an IC50 of 142 nM. `COc1ccc2c(CCN3CCN(c4cccc(Cl)n4)CC3)c[nH]c2c1` [Example 65] showed an IC50 of 134 nM. Compound `Clc1cccc(N2CCN(CCCc3c[nH]c4ccccc34)CC2)n1` [Example 19, 1-(6-Chloro-2-pyridinyl)-4-[3-(1H-indol-3-yl)propyl]piperazine hydrochloride] has an IC50 of 98 nM. In the case of `COc1ccc(Cl)nc1N1CCN(CCCc2c[nH]c3ccccc23)CC1` [Example 71], the IC50 is reported as 4.9 nM. Work on `Clc1cccnc1N1CCN(CCc2c[nH]c3ccccc23)CC1` [Example 42] yielded an IC50 of 520 nM. In the case of `Clc1cccc(N2CCN(CCCCc3c[nH]c4ccccc34)CC2)n1` [Example 31], the IC50 is reported as 27 nM. `COc1cc2[nH]cc(CCN3CCN(c4cccc(Cl)n4)CC3)c2cc1OC` [Example 48] showed an IC50 of 127 nM. For `COc1cccnc1N1CCN(CCCc2c[nH]c3ccccc23)CC1` [Example 20, 1-[3-(1H-indol-3-yl)-propyl]-4-[3-methoxy-2-pyridinyl]piperazine dihydrochloride hydrate], the IC50 was 1.1 nM. `Fc1ccc2[nH]cc(C3=CCC(N4CCN(c5cccc(Cl)n5)CC4)CC3)c2c1` (stereo not shown) [Example 70] was tested, and the IC50 was 141 nM. Work on `COc1cccnc1N1C[C@@H]2C[C@H]1CN2CCc1c[nH]c2ccccc12` [Example 27] yielded an IC50 of 12.5 nM. `COc1cccc(N2CCN(CCc3c[nH]c4ccccc34)CC2)n1` [Example 16, 1-[2-(1H-indol-3-yl)-ethyl]-4[6-methoxy-2-pyridinyl-piperazine hydrate] was tested, and the IC50 was 88 nM. Work on `Clc1ccc2[nH]cc(CCN3CCN(c4cccc(Cl)n4)CC3)c2c1` [Example 57] yielded an IC50 of 166 nM. For `Clc1ccc(N2CCN(CCc3c[nH]c4ccccc34)CC2)nc1` [Example 54], the IC50 was 30 nM. With `FC(F)(F)c1cccc(N2CCN(CCCCc3c[nH]c4ccccc34)CC2)n1` [Example 32] the IC50 was 259 nM. `COc1cccnc1N1CCN(CCc2c[nH]c3ccc(Cl)cc23)CC1` [Example 56] showed an IC50 of under 1 nM. `FC(F)(F)c1cccnc1N1CCN(CCc2c[nH]c3ccccc23)CC1` [Example 17, 1-[2-(1H-indol-3-yl)-ethyl]-4-[3-trifluoromethyl-2-pyridinyl]piperazine hydrochloride] showed an IC50 of 37 nM. `CC(Cc1c[nH]c2ccccc12)N1CCN(c2cccc(Cl)n2)CC1` (stereo not shown) [Example 36, 3-[2-[4-(6-Chloro-2-pyridyl)-1-piperazinyl]propyl]-indole] gave an IC50 of 75 nM. With `FC(F)(F)c1cccc(N2CCN(CCc3c[nH]c4ccccc34)CC2)n1` [Example 15, 1-[2-(1H-indol-3-yl)-ethyl]-4-6-trifluoromethyl-2-pyridinyl]piperazine hydrochloride] the IC50 was 73 nM. `Clc1cccc(N2C[C@@H]3C[C@H]2CN3CCc2c[nH]c3ccccc23)n1` [Example 28] showed an IC50 of 77 nM. `COc1cccnc1N1CCN(CCc2c[nH]c3ccccc23)C(C)C1` (stereo not shown) [Example 64] gave an IC50 of under 1 nM. `COc1ccc2c(CCN3CCN(c4ncccc4OC)CC3)c[nH]c2c1` [Example 66] was tested, and the IC50 was 35.9 nM. With `COc1ccc2[nH]cc(CCN3CCN(c4cccc(C(F)(F)F)n4)CC3)c2c1` [Example 44] the IC50 was 560 nM. Compound `COc1cccnc1N1C[C@H]2C[C@@H]1CN2CCCc1c[nH]c2ccccc12` [Example 35] has an IC50 of 152 nM. Compound `COc1cccnc1N1CCN(C(C)CCc2c[nH]c3ccccc23)CC1` (stereo not shown) [Example 68] has an IC50 of 36.7 nM. `COc1cccnc1N1CCN(CCc2c[nH]c3ccc(F)cc23)CC1` [Example 39] was tested, and the IC50 was 0.2 nM. In the case of `Clc1cccc(N2CCN(C3CC=C(c4c[nH]c5ccccc45)CC3)CC2)n1` (stereo not shown) [Example 45], the IC50 is reported as 100 nM. With `FC(F)(F)c1cccc(N2CCN(CCCc3c[nH]c4ccccc34)CC2)n1` [Example 30] the IC50 was 192 nM. `COc1ccc2[nH]cc(CCN3CCN(c4cccc(Cl)n4)CC3)c2c1` [Example 40] gave an IC50 of 177 nM. For `COc1cccnc1N1CCN(CCc2c[nH]c3ccccc23)C(C)C1` (stereo not shown) [Example 25], the IC50 was 8.6 nM. `COc1cccnc1N1CCN(CCc2c[nH]c3ccccc23)CC1` [Example 18, 1-[2-(1H-indol-3-yl)-ethyl]-4-[3-methoxy-2-pyridinyl]-piperazine] was tested, and the IC50 was 13 nM. `Cn1cc(CCCN2CCN(c3cccc(Cl)n3)CC2)c2ccccc21` [Example 51] was tested, and the IC50 was 86 nM. For `Clc1cccc(N2C[C@H]3C[C@@H]2CN3CCc2c[nH]c3ccccc23)n1` [Example 29], the IC50 was 106 nM.
